Reference: US20070088050A1, “Crystals of laquinimod sodium, and process for the manufacture thereof” (priority 2005, published 2007)

How the values were obtained:
[1] = Determination of powder density (bulk density, tapped density); format: physicochemical; details: for Powder density, TD (tapped density): 1250 taps; for Powder density, BD (bulk density): loose, uncompacted powder
Protocol: As used herein, “bulk density” or “BD” refers to a density measurement of a loose, uncompacted substance, wherein the volume of the substance includes the air trapped between particles.
As used herein, “tapped density” or “TD” refers to a density measurement of a substance that has been tapped or vibrated, thus minimizing the volume of the substance by eliminating or minimizing the air trapped between particles.
Determination of Powder Density
• 1. Mix powder; • 2. Tare a 50 ml empty cylinder on a 0.01 g sensitivity balance; • 3. Transfer the powder, without compacting, to the cylinder being held at approximately a 45 degree angle to achieve an untapped apparent volume of 40 to 50 ml. • 4. Bring the cylinder containing the sample to a vertical position by a sharp move in order to level the volume for reading. • 5. Read the apparent volume (Va) to the nearest graduated unit; • 6. Weigh the cylinder with sample (the balance gives sample weight M); • 7. Calculate bulk density in g/ml according to the following equation: BD=M/Va; • 8. Perform steps 1-7 again and report the average data of duplicates. Tapped Density • 1. Put the same cylinder used to calculate Bulk Density in a Quantachrome Dual Autotap instrument; • 2. Perform 1250 taps; • 3. Read the tapped volume (Vf) to the nearest graduated unit; • 4. Calculate the tapped density in g/ml according to the following equation: TD=M/Vf; • 5. Perform steps 1-4 again and report the average data of duplicates. Determination of Particle Size

[2] = Particle size distribution by Malvern laser diffraction (Mastersizer S); format: physicochemical; details: for Particle size distribution by Malvern, d(0.1): size below which 10% by volume of the population is found; for Particle size distribution by Malvern, d(0.5): size below which 50% by volume of the population is found; for Particle size distribution by Malvern, d(0.9): size below which 90% by volume of the population is found
Protocol: The particle size distributions were measured by Malvern Laser Diffraction, using the Mastersizer S model. Laser diffraction relies on the fact that diffraction angle of light is inversely proportional to particle size. Properties of particles are measured and interpreted as measurements of a sphere (a sphere being the only shape that can be described by one unique number). In addition, laser diffraction calculates a particle size distribution based around volume terms, thus eliminating particle count from the determination of particle size. The Mastersizer S model measures particles using a single technique and a single range setting.
D(0.1) is the particle size, in microns, below which 10% by volume distribution of the population is found. D(0.5) is the particle size, in microns, below which 50% by volume distribution of the population is found. D(0.9) is the particle size, in microns, below which 90% by volume distribution of the population is found.

[3] = system: acute experimental autoimmune encephalomyelitis (aEAE) model; details: U.S. Pat. No. 6,077,851; cited from earlier work
[4] = Solubility of laquinimod sodium in anti-solvents at room temperature (USP XXV terms); format: physicochemical; details: room temperature (20-25° C.)
Excerpt: The solubility terms are defined below, in accordance with the United States Pharmacopoeia XXV. [table]

[5] = Insoluble matter test: sample mixed in deionized water at ambient temperature; format: physicochemical; details: 55 mg sample in 0.5 mL deionized water
Protocol: (§1) The subject invention also provides a process for making a pharmaceutical composition comprising laquinimod sodium comprising: • a) obtaining a batch of laquinimod sodium; • b) determining whether insoluble matter is present in the batch of step a) by mixing a sample from the batch in deionized water at room temperature at a ratio of at least 110 mg of sample to 1.0 ml of water, and inspecting the resulting mixture for the presence of insoluble matter; and • c) mixing the batch of step a) with at least one pharmaceutically acceptable carrier if in step b) insoluble matter is determined to be present below a predetermined amount.
as §1, with “A” for “The subject invention also provides a”, “amount. […]” for “amount.”

[6] = listed as Laguinimod Sodium according to Example 1 (batch B)

Powder density, TD (tapped density) [1] [g/ml]	Powder density, BD (bulk density) [1] [g/ml]	Particle size distribution by Malvern, d(0.1) [2] [micron]	Particle size distribution by Malvern, d(0.5) [2] [micron]	Particle size distribution by Malvern, d(0.9) [2] [micron]	Structure (SMILES)	also measured
0.429	0.224	3.5	15.7	43.2	CCN(C(=O)c1c([O-])c2c(Cl)cccc2n(C)c1=O)c1ccccc1.[Na+] [Recrystallized product (Example 14)]	
					CCN(C(=O)c1c(O)c2c(Cl)cccc2n(C)c1=O)c1ccccc1 [Laquinimod, N-ethyl-N-phenyl-1,2,-dihydro-4-hydroxy-5-chloro-1-methyl-2-oxoquinoline-3-carboxamide]	Efficacy in the aEAE model [3]: effective
0.362	0.158	1.3	5.9	19.4	CCN(C(=O)c1c([O-])c2c(Cl)cccc2n(C)c1=O)c1ccccc1.[Na+] [Laquinimod Sodium prepared according to Example 1 (batch C)]	
					CCN(C(=O)c1c(O)c2c(Cl)cccc2n(C)c1=O)c1ccccc1 [laquinimod sodium]	Solubility in acetone ([4]; acetone): practically insoluble; Solubility in ethanol ([4]; ethanol): slightly soluble; Solubility in isopropanol ([4]; isopropanol): very slightly soluble
0.452	0.189	2.1	10.8	35.3	CCN(C(=O)c1c([O-])c2c(Cl)cccc2n(C)c1=O)c1ccccc1.[Na+] [Laquinimod Sodium prepared according to Example 1 (batch B)]	Particle size distribution by Malvern, d(0.1) [2, 6]: 2.1 micron; Particle size distribution by Malvern, d(0.5) [2, 6]: 10.8 micron; Particle size distribution by Malvern, d(0.9) [2, 6]: 35.3 micron
0.347	0.166	1.5	7.1	23.2	CCN(C(=O)c1c([O-])c2c(Cl)cccc2n(C)c1=O)c1ccccc1.[Na+] [Laquinimod Sodium prepared according to Example 1 (batch A)]	
					CCN(C(=O)c1c([O-])c2c(Cl)cccc2n(C)c1=O)c1ccccc1.[Na+]	Dissolution in deionized water [5]: did not completely dissolve
		6.1	21.2	51.8	CCN(C(=O)c1c([O-])c2c(Cl)cccc2n(C)c1=O)c1ccccc1.[Na+] [Recrystallized product (Example 15)]	
		15.7	65.5	156.4	CCN(C(=O)c1c([O-])c2c(Cl)cccc2n(C)c1=O)c1ccccc1.[Na+] [Recrystallized product (Example 16)]	
0.758	0.498	13.3	51.1	105.1	CCN(C(=O)c1c([O-])c2c(Cl)cccc2n(C)c1=O)c1ccccc1.[Na+] [Re-acrystallized product]	
